From US6699690B2, “Molecular constructs with a carcinoembryonic antigen (CEA) transcriptional regulatory sequence” (SmithKline Beecham Corporation, priority 1992, dated 2004) come the findings set out here.

Like-named read-outs stand apart in the source and are kept apart here.

By IC50 is commonly meant the concentration that gives 50% inhibition.

The subject of data set [1] is HepG2 cells. The data set is described as follows: Growth inhibition by araM in HepG2 cells. The conditions noted are these: HepG2 infected with ALB/VZV TK (pCR74) virus, 5 days, read-out: IC50 (50% growth inhibition). The data set is classed as cell-based, human. On the procedure:
(§1) The replication-defective, full-length, artificial retroviruses containing the ALB/VZV TK chimaera or AFP/VZV TK chimaera were used to infect human hepatoma cell lines called HepG2 (ATCC HB 8065) and HuH7(provided by B. Mason, Fox Chase Cancer Center, Philadelphia, Pa.). Following infection and selection on 1 mg Geneticin/mL, the cells were assayed for VZV TK activity (Geneticin(antibiotic G418 sulphate) is a registered trademark of GIBCO). In addition, HepG2 cells were incubated in the presence of (^3H)-labeled 9-β-D-arabinofuranosyl-6-methoxy-9H-purine (designated as araM in the following tables and figures) with subsequent measurement of ara-ATP formation. Finally, HepG2 and HuH7 cells were cultured in the presence of the abovementioned compound and the IC50 (50% growth inhibition) was determined. Cells infected with no virus or N2 virus act as control samples for these experiments. The N2 viruses contain no VZV TK genetic material.
(§2) HepG2 and HuH7 cells infected with the replication-defective, full-length, artificial retroviruses containing the ALB/VZV TK chimaera (pCR74) or AFP/VZV TK (pCR78) chimaera were incubated in the presence of varying amounts of 9-β-D-arabinofuranosyl-6-methoxy-9H-purine for 5 days and growth inhibition was determined as measured by cell number and DNA content.

Data set [2] concerns HepG2 cells. The data set is described as follows: ara-ATP formation from (3H)-labelled araM in infected HepG2 cells. The data set is classed as cell-based, human. The conditions noted are these: HepG2 cells infected with either pCR74- or pCR78-containing viruses. On the procedure:
as §1
9-β-D-arabinofuranosyl-6-methoxy-9H-purine (designated as araM) can be selectively monophosphorylated by VZV TK with subsequent anabolism to cytotoxic ara-ATP.

In data set [3] the test system is WiDR, MCF7, Detroit 555, and SW480 nonhepatoma cell lines. Nature of the data set: Growth inhibition by araM in infected nonhepatoma cell lines. It is filed as cell-based, human. To be noted: four nonhepatoma cell lines infected with pCR74 or pCR78 virus. On the procedure: Four human, nonhepatoma cell lines were infected with replication-defective, full-length, artifical retroviruses containing the ALB/VZV TK chimaera (pCR74) or AFP/VZV TK chimaera (pCR78). These cell lines were WiDR (ATCC CCL218), MCF7 (ATCC HTB22), Detroit 555 (ATCC CCL110), and SW480 (ATCC CCL228). Subsequent to infection and selection on Geneticin (antibiotic G418 sulphate; registered trademark of GIBCO), these cells were assayed for VZV TK activity and growth inhibition in the presence of 9-β-D-arabinofuranosyl-6-methoxy-9H-purine, as described above. There was no increase in VZV TK activity or drug sensitivity to 9-β-D-arabino-furanosyl-6-methoxy-9H-purine in these four nonhepatoma cell lines infected with replication-defective, full-length, artificial retroviruses containing the ALB/VZV TK chimaera (pCR74) or AFP/VZV TK chimaera (pCR78) compared to parental cell lines which were not infected.

The subject of data set [4] is HuH7 cells. The data set is described as follows: Growth inhibition by araM in HuH7 cells. The data set is classed as cell-based. To be noted: Homo sapiens, Huh-7, 120 h, 5 days, read-out: IC50 (50% growth inhibition). Here is the method:
as §1, §2

For data set [5], the system named is WiDr tumors. The data set is described as follows: 5-FC treatment of subcutaneous WiDr tumors in nude mice. The data set is classed as in vivo. To be noted: 5-FC ip 500 mg/kg. Here is the method: (§3) The same mixtures of WiDr and WiDr/CD cells were injected subcutaneously into 10 individual nude mice for 10 individual injections of 10 million cells for each mixture (Table 3). By day 6, all mice had tumors of approximately the same size. On day 6, 5 mice of each group received a daily injection of 5-FC (ip at 500 mg/kg body weight) for approximately 20 consecutive days, then injections of 5-FC (ip at 500 mg/kg body weight) three times a week for 19 days. By 22 days post tumor cell injection, all nontreated animals had to be killed due to the large size of the tumors. Likewise, all animals with WiDr derived tumors which also received 5-FC treatment had to be sacrificed on day 22 due to the size of the tumors.

In data set [6] the test system is WiDr/CD cells. The data set is described as follows: Inhibition of cell growth by 5-FC in WiDr/CD cells. It is filed as cell-based. To be noted: Homo sapiens; WiDr/CD cells expressing cytosine deaminase, 3,000 cells per well, dosed from Day 3, read Day 8. Here is the method:
(§4) FIG. 23: 5-FC dose response of mixed WiDr and WiDr/CD cells. […] Beginning on Day 3, the cells were dosed with serially diluted 5-FC at the concentrations indicated on the x axis. The plates were stained and read on Day 8.
(§5) The following data illustrates and supports this important component of this invention. A human colorectal carcinoma cell line, WiDr, was genetically engineered to express cytosine deaminase (CD) by transfecting into the cell line the cloned gene for cytosine deaminase in an appropriate expression vector system for mammalian cells. WiDr cells expressing cytosine deaminase (WiDR/CD) and control cells not expressing cytosine deaminase (WiDr) were mixed together at different ratios, then plated at a total of 3,000 cells per well in a 96 well microtiter dish. […] Using the same mixtures of WiDr and WiDr/CD cells and again plating 3,000 total cells per well in a 96 well microtiter dish, log dose response curves were generated for the inhibition of cell growth by 5-FC.

The subject of data set [7] is WiDr cells. The data set is described as follows: Inhibition of cell growth by 5-FC in WiDr cells. It is filed as cell-based. The conditions noted are these: Homo sapiens; control WiDr cells, 3,000 cells per well, dosed from Day 3, read Day 8. Here is the method:
as §4, §5

Data set [8] has as its system WiDr/CD tumors. The data set is described as follows: 5-FC treatment of subcutaneous WiDr/CD tumors in nude mice. To be noted: WiDr/CD cells injected; 5-FC ip 500 mg/kg; assessed day 130. It is filed as in vivo. Here is the method: as §3
Data set [9] deals with mixed WiDr and WiDr/CD tumors. The data set is described as follows: 5-FC treatment of subcutaneous mixed WiDr:WiDr/CD tumors in nude mice. It is filed as in vivo. The conditions noted are these: 5-FC ip 500 mg/kg; for Number of Cures: assessed day 130. On the procedure: as §3

For `COc1ncnc2c1ncn2[C@@H]1O[C@H](CO)[C@@H](O)[C@@H]1O` [araM, 9-β-D-arabinofuranosyl-6-methoxy-9H-purine], the IC50 in data set [1] (listed as 9-B-D-arabinofuranosyl-6-methoxy-9H-purine) was 5 µM; in data set [1] (Homo sapiens, HepG2, 120 h) it was 6.5 µM; in data set [4] (HuH7, no virus (control)) it was ~1620 µM; in data set [4] (HuH7 infected with AFP/VZV TK (pCR78) virus) it was 76 µM; in data set [4] (HuH7 infected with ALB/VZV TK (pCR74) virus), 11 µM. Besides, the “cytotoxic (3H)-ara-ATP formation” value in data set [2] is given as “significant amounts”. In addition, the “increase in drug sensitivity compared to parental cell lines not infected” value in data set [3] is recorded as “no increase”.
As for `Nc1nc(=O)[nH]cc1F` [5-FC, 5-fluorocytosine], the “Number of Cures” value is listed as 0/5 in [5] (WiDR cells injected, assessed day 22); 3/5 in [8]; 4/5 in [9] (WiDr:WiDr/CD (1:1) injected); 4/5 in data set [9] (WiDr:WiDr/CD (1:2) injected); 4/5 in [9] (WiDr:WiDr/CD (2:1) injected). Further, the effect on tumors entry in data set [5] (WiDr tumors that do not express cytosine deaminase) was “no effect”. The IC50 in data set [6] was in the range of 10 to 25 µM; in data set [7] it was 10000 to 30000 µM. Also, the antitumor effects result in data set [9] (all tumor groups composed of mixtures of cells which contained WiDr/CD cells) is “significant antitumor effects”.
